pIC50: −log10 of the molar value. In brackets after ≈: the same amount, converted by molar mass.
Assays:
[1] = biological target: T1, DNA topoisomerase 4 subunit A (Escherichia coli K-12, UniProt P0AFI2); assay: Inhibition of Escherichia coli ATCC 25922 DNA topoisomerase 4 subunit ParC assessed as reduction in decatenation of kinetoplast DNA incubated for 30 mins by ethidium bromide staining based gel electrophoresis method
T1 sequence (P0AFI2 whole entry): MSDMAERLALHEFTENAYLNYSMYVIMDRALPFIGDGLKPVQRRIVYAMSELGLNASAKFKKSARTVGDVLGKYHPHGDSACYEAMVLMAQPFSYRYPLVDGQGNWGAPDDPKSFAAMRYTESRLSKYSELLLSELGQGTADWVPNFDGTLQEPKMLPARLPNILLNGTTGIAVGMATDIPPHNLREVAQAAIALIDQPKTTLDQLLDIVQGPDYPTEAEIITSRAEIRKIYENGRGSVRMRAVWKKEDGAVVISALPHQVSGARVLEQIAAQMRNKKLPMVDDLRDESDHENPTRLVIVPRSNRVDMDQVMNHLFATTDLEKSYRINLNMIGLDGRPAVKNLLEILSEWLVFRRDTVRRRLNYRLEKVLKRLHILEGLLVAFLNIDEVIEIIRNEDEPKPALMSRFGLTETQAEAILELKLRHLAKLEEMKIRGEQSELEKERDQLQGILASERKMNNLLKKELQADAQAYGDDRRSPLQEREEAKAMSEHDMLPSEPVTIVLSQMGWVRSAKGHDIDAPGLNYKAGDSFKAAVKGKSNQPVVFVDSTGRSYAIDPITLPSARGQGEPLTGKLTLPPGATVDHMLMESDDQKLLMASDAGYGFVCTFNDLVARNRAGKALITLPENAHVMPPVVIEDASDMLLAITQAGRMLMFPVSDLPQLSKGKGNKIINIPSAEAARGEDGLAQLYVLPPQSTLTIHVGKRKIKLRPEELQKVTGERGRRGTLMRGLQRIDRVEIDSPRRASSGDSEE

[2] = biological target: DNA topoisomerase 4 subunit A (Staphylococcus aureus, UniProt P0C1U9); assay: Inhibition of Staphylococcus aureus ATCC 29213 DNA topoisomerase 4 subunit ParC assessed as reduction in decatenation of kinetoplast DNA incubated for 30 mins by ethidium bromide staining based gel electrophoresis method
Chain of DNA topoisomerase 4 subunit A (Staphylococcus aureus, UniProt P0C1U9) (P0C1U9 whole entry): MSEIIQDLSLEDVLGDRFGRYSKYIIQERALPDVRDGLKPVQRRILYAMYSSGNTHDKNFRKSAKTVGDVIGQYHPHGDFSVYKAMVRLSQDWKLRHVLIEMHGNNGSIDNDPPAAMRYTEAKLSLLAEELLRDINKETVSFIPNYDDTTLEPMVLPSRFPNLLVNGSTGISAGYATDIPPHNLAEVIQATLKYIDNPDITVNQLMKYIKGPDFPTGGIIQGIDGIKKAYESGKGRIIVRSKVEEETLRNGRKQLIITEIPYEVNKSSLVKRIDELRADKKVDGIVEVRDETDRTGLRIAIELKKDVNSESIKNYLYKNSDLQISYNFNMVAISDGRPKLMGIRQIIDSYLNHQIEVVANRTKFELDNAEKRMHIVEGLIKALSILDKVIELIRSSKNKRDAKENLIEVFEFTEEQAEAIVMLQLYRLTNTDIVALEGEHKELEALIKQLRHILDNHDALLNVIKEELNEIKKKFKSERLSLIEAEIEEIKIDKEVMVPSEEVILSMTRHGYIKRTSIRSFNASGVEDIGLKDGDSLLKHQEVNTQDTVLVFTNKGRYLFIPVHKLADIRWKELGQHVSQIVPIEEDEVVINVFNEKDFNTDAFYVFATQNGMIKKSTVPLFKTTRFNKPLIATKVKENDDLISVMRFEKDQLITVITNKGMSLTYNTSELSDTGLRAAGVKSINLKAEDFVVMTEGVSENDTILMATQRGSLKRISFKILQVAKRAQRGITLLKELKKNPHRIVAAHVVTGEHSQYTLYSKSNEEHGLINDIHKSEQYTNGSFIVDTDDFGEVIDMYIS

DNA gyrase subunit A [3] = biological target: DNA gyrase subunit A (Escherichia coli K-12, UniProt P0AES4); assay: Inhibition of Escherichia coli ATCC 25922 DNA gyrase A assessed as reduction in enzyme-mediated supercoiling of relaxed pBR322 DNA by ethidium bromide staining based gel electrophoresis method
Chain of DNA gyrase subunit A (Escherichia coli K-12, UniProt P0AES4) (P0AES4 whole entry): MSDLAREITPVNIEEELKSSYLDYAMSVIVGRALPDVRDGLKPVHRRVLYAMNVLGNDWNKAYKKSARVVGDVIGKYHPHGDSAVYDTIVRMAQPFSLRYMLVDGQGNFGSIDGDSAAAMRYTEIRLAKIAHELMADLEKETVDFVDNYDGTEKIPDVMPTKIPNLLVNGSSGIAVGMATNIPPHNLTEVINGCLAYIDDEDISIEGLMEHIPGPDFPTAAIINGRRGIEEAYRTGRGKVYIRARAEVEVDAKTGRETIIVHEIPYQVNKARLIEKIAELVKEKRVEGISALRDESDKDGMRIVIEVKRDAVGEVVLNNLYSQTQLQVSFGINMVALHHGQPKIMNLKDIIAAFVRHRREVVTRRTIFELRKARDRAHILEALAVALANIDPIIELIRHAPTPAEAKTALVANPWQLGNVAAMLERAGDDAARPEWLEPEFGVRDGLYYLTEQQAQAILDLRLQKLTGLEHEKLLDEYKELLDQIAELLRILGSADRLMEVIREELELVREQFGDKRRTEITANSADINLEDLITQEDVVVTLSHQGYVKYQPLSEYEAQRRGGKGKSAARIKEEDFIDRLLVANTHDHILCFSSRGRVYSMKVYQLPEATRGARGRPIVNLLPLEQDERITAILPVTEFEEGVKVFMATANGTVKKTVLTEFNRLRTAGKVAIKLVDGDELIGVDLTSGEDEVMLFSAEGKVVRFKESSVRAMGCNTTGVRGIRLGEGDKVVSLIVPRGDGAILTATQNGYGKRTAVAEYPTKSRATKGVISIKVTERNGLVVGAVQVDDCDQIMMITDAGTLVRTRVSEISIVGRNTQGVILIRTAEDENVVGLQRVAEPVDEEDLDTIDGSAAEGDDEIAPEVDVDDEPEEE

DNA gyrase subunit A [4] = biological target: DNA gyrase subunit A (Staphylococcus aureus, UniProt P20831); assay: Inhibition of Staphylococcus aureus ATCC 29213 DNA gyrase A assessed as reduction in enzyme-mediated supercoiling of relaxed pBR322 DNA by ethidium bromide staining based gel electrophoresis method
Chain of DNA gyrase subunit A (Staphylococcus aureus, UniProt P20831) (P20831 whole entry): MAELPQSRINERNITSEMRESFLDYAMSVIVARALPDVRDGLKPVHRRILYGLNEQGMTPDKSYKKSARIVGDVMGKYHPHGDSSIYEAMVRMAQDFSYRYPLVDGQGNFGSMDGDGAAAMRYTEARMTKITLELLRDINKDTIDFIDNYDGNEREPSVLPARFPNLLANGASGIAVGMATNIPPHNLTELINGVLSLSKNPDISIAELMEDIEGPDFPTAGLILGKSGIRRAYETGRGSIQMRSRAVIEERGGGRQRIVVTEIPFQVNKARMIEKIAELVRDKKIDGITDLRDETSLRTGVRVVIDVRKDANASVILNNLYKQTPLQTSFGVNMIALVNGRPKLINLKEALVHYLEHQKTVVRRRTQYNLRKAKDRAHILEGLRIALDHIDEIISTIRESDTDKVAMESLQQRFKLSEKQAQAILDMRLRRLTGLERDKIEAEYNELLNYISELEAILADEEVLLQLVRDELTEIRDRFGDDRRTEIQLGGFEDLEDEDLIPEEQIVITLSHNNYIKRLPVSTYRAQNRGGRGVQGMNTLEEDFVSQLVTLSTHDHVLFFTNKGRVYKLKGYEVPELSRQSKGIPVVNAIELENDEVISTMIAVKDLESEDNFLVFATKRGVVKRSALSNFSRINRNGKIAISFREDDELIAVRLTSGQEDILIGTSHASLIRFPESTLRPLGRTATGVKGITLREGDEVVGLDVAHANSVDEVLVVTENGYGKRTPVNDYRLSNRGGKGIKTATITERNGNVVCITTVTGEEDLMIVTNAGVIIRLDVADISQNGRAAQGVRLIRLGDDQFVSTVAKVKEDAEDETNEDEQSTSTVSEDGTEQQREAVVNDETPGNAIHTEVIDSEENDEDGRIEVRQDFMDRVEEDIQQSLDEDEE

Staphylococcus aureus [5] = assay: Antibacterial activity against Staphylococcus aureus BAA-1720 after 16 to 24 hrs by broth microdilution method; format: functional
Pseudomonas aeruginosa = assay: Antibacterial activity against Pseudomonas aeruginosa ATCC 27853 after 16 to 24 hrs by CLSI method; format: functional
Staphylococcus aureus [6] = assay: Antibacterial activity against Staphylococcus aureus ATCC 29213 after 16 to 24 hrs by broth microdilution method; format: functional
Escherichia coli = assay: Antibacterial activity against Escherichia coli ATCC 25922 after 16 to 24 hrs by broth microdilution method; format: functional

Structure (SMILES) | pIC50 [1] | pIC50 [2] | pIC50 (DNA gyrase subunit A [3]) | pIC50 (DNA gyrase subunit A [4]) | MIC (Staphylococcus aureus [5]) [µg/mL] | MIC (Pseudomonas aeruginosa) [µg/mL] | MIC (Staphylococcus aureus [6]) [µg/mL] | MIC (Escherichia coli) [µg/mL]
COc1cc2ccccc2c(N2CCN(CCCNc3cc(=O)oc4ccccc34)CC2)n1 | 5.62 | 3.86 | 4.18 | 4.36 |  |  |  | 
O=c1cc(N[C@H]2C[C@@H](N3CCN(c4nccc5ccccc45)CC3)C2)c2ccccc2o1 | 6.05 | < 4.00 | 5.96 | 5.92 |  |  |  | 
O=c1cc(NCCCN2CCN(c3nccc4ccc(F)cc34)CC2)c2ccccc2o1 | 5.77 | 4.93 | 6.10 | 5.55 |  |  |  | 
O=c1cc(NCCCN2CCN(c3nccc4ncccc34)CC2)c2ccccc2o1 | 4.53 | 4.08 | 4.39 | 4.57 |  |  |  | 
O=c1cc(NCCCN2CCN(c3nccc4ccc(F)cc34)CC2)c2c(o1)CCOC2 | 4.23 | 5.40 | 5.20 | 4.72 |  |  |  | 
Cc1c(NCCCN2CCN(c3nccc4ccc(F)cc34)CC2)c2ccccc2oc1=O | 5.66 | < 4.00 | 5.89 | 4.77 |  |  |  | 
O=c1cc(NC[C@@H](O)CN2CCN(c3nccc4ccc(F)cc34)CC2)c2ccccc2o1 | 5.89 | 5.52 | 5.96 | 5.80 | 1 (≈ 2.23 µM) | 4 (≈ 8.92 µM) | 1 (≈ 2.23 µM) | 2 (≈ 4.46 µM)
Cc1cccc2oc(=O)cc(NCCCN3CCN(c4nccc5ccc(F)cc45)CC3)c12 | 5.51 | < 4.00 | 5.62 | 5.68 |  |  |  | 
O=c1cc(NCCCN2CCN(c3nccc4ccccc34)CC2)c2cc(F)ccc2o1 | 5.89 | 5.51 | 5.92 | 5.41 | 2 (≈ 4.62 µM) |  | 4 (≈ 9.25 µM) | 0.5 (≈ 1.16 µM)
O=c1cc(NCCCN2CCN(c3nccc4ccc(F)cc34)CC2)c2c(o1)CCS(=O)(=O)C2 | 4.28 | 5.68 | 5.54 | 5.11 |  |  |  | 
O=c1cc(OCCCN2CCN(c3nccc4ccccc34)CC2)c2ccccc2o1 | 4.65 | < 4.00 | 5.21 | 4.55 |  |  |  | 
Cc1ccc2ccnc(N3CCN(CCCNc4cc(=O)oc5ccccc45)CC3)c2c1 | 5.42 | 4.28 | 5.59 | 5.02 |  |  |  | 
O=c1nc(NC[C@@H](O)CN2CCN(c3nccc4ccc(F)cc34)CC2)c2ccccc2o1 | 6.40 | 6.52 | 5.82 | 6.22 | 1 (≈ 2.22 µM) | > 8 | 0.25 (≈ 0.556 µM) | 4 (≈ 8.9 µM)
Cc1cc2ccccc2c(N2CCN(CCCNc3cc(=O)oc4ccccc34)CC2)n1 |  | 5.12 | 5.32 | 4.48 |  |  |  | 
O=c1cc(NCCCN2CCN(c3nccc4ccccc34)CC2)c2ccccc2o1 | 5.00 | 4.05 | 6.30 | 4.85 | > 32 | > 32 | > 32 | 4 (≈ 9.65 µM)
O=c1cc(NC[C@H](O)CN2CCN(c3nccc4ccc(F)cc34)CC2)c2ccccc2o1 | 5.96 | 5.77 | 5.74 | 5.82 | 0.5 (≈ 1.11 µM) | 8 (≈ 17.8 µM) | 1 (≈ 2.23 µM) | 4 (≈ 8.92 µM)
O=c1cc(NCCCN2CCN(c3nc(F)cc4ccccc34)CC2)c2ccccc2o1 | 5.72 | 5.15 | 6.05 | 5.59 | 2 (≈ 4.62 µM) | 4 (≈ 9.25 µM) | 4 (≈ 9.25 µM) | 4 (≈ 9.25 µM)
O=c1cc(NCCCN2CCN(c3nc(Cl)cc4ccccc34)CC2)c2ccccc2o1 | 5.49 | 4.99 | 5.64 | 4.92 |  |  |  | 

Structure (SMILES) | pIC50 [1] | pIC50 [2] | pIC50 (DNA gyrase subunit A [3]) | pIC50 (DNA gyrase subunit A [4]) | MIC (Staphylococcus aureus [5]) [µg/mL] | MIC (Pseudomonas aeruginosa) [µg/mL] | MIC (Staphylococcus aureus [6]) [µg/mL] | MIC (Escherichia coli) [µg/mL]
O=c1cc(NCCN2CCN(c3nccc4ccccc34)CC2)c2ccccc2o1 | 5.17 | < 4.00 |  | 5.16 |  |  |  | 
O=C(CCN1CCN(c2nccc3ccc(F)cc23)CC1)Nc1cc(=O)oc2ccccc12 | 6.15 | 4.40 | 5.96 | 4.98 |  |  |  | 
O=C(NCCCN1CCN(c2nccc3ccccc23)CC1)c1ccccc1 | 3.89 | 3.31 | 3.95 | 4.70 | 32 (≈ 85.5 µM) |  | 16 (≈ 42.7 µM) | 256 (≈ 684 µM)
O=c1cc(NCCCN2CCN(c3nccc4ccccc34)CC2)c2c(o1)CCCC2 | 5.11 | 4.28 | 5.12 | 5.43 |  |  |  | 
O=c1cc(N[C@H]2C[C@H](N3CCN(c4nccc5ccccc45)CC3)C2)c2ccccc2o1 | 5.59 | 4.94 | 5.68 | 5.25 |  |  |  | 
N#Cc1ccc2ccnc(N3CCN(CCCNc4cc(=O)oc5ccccc45)CC3)c2c1 | 5.77 | 5.29 | 5.64 | 5.17 | 4 (≈ 9.1 µM) | > 8 | 8 (≈ 18.2 µM) | 2 (≈ 4.55 µM)
O=c1cc(NCCCN2CCN(c3nccc4ccc(F)cc34)CC2)c2c(o1)CCNC2 | 5.14 | < 4.00 | 4.64 | 3.79 |  |  |  | 
O=C1CN(c2nccc3ccccc23)CCN1CCCNc1cc(=O)oc2ccccc12 | 4.55 | < 4.00 | 4.33 | < 4.00 |  |  |  | 
O=c1cc(NCCCN2CCN(c3nccc4ccccc34)CC2)c2cc(Cl)ccc2o1 | 5.92 | 5.26 | 6.22 | 5.28 | 4 (≈ 8.91 µM) | 4 (≈ 8.91 µM) | 8 (≈ 17.8 µM) | 0.5 (≈ 1.11 µM)
COc1ccc2ccnc(N3CCN(CCCNc4cc(=O)oc5ccccc45)CC3)c2c1 | 6.05 | 5.17 | 5.49 | 5.96 | 1 (≈ 2.25 µM) | 8 (≈ 18 µM) | 2 (≈ 4.5 µM) | 4 (≈ 9 µM)
O=c1cc(NCCCN2CCN(c3nccc4ccc(Cl)cc34)CC2)c2ccccc2o1 | 5.62 | 5.25 | 6.05 | 5.35 | 2 (≈ 4.45 µM) | 8 (≈ 17.8 µM) | 4 (≈ 8.91 µM) | 2 (≈ 4.45 µM)
O=c1cc(NCCCN2CCN(c3nccc4ccc(F)cc34)CC2)c2c(o1)CCSC2 | 5.10 | 4.82 | 5.89 | 5.89 |  |  |  | 
CN(C)c1ccc2ccnc(N3CCN(CCCNc4cc(=O)oc5ccccc45)CC3)c2c1 | 5.06 | 4.95 | 5.25 | 5.34 |  |  |  | 
CN(CCCN1CCN(c2nccc3ccccc23)CC1)c1cc(=O)oc2ccccc12 | 4.64 | < 4.00 | 4.50 | 4.92 |  |  |  | 
N#Cc1cc2ccccc2c(N2CCN(CCCNc3cc(=O)oc4ccccc34)CC2)n1 | 5.41 | < 4.00 | 5.25 | 5.44 |  |  |  | 
O=c1cc(NC2CCN(CCCc3ccccc3)CC2)c2cc(Cl)ccc2o1 | 5.39 | 3.70 to 4.00 | < 3.10 | 4.56 |  |  |  | 
O=c1cc(CC(O)CCN2CCN(c3nccc4ccc(F)cc34)CC2)c2ccccc2o1 (racemic) | 5.60 | 5.77 | 5.55 | 6.10 | 4 (≈ 8.94 µM) | > 8 | 1 (≈ 2.23 µM) | 8 (≈ 17.9 µM)
O=c1cc(NCC(O)CN2CCN(c3nccc4ncccc34)CC2)c2cc(F)ccc2o1 (racemic) | 6.70 | 6.52 | 6.82 | 5.96 | 4 (≈ 8.9 µM) | 8 (≈ 17.8 µM) | 4 (≈ 8.9 µM) | 2 (≈ 4.45 µM)

Source: ChEMBL document CHEMBL4373693, “Virtual Screening Approach and Investigation of Structure-Activity Relationships To Discover Novel Bacterial Topoisomerase Inhibitors Targeting Gram-Positive and Gram-Negative Pathogens” (J Med Chem, 2019)
